Source: PubChem BioAssay AID248 (DTP/NCI, 2004)
“And” between values parts separate entries of the source, which are not always exact repeats. Equal values may be shown once. Inconclusive results and toxic doses are left out. Cut-off read from the data, not from the text of the source: active = T/C of 150% or more; inactive = T/C below 125%.

Test system: L1210 leukemia ip in BDF1 mice, survival T/C
Assay: NCI In Vivo Anticancer Drug Screen. Data for tumor model L1210 Leukemia (intraperitoneal) in B6D2F1 (BDF1) mice
Conditions: endpoint: mean survival time, higher = longer survival
In short: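 Read-out is survival time, reported as the treated-group measurement over the vehicle-control measurement.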

[1] = dose: 100.0 mg/kg/injection, schedule: Q01DX009 (ip), vehicle: Klucel (hydroxypropylcellulose) (HPC)
[2] = dose: 200.0 mg/kg/injection, schedule: Q01DX009 (ip), vehicle: Klucel (hydroxypropylcellulose) (HPC)
[3] = dose: 100.0 mg/kg/injection, schedule: Q01DX001 (ip), vehicle: Klucel (hydroxypropylcellulose) (HPC)
[4] = dose: 100.0 mg/kg/injection, schedule: Q04DX003 (ip), vehicle: Klucel (hydroxypropylcellulose) (HPC)
[5] = dose: 200.0 mg/kg/injection, schedule: Q01DX001 (ip), vehicle: Klucel (hydroxypropylcellulose) (HPC)
[6] = dose: 200.0 mg/kg/injection, schedule: Q04DX003 (ip), vehicle: Klucel (hydroxypropylcellulose) (HPC)
[7] = dose: 400.0 mg/kg/injection, schedule: Q01DX001 (ip), vehicle: Klucel (hydroxypropylcellulose) (HPC)
[8] = dose: 400.0 mg/kg/injection, schedule: Q04DX003 (ip), vehicle: Klucel (hydroxypropylcellulose) (HPC)
[9] = dose: 100.0 mg/kg/injection, schedule: Q04DX002 (ip), vehicle: Klucel (hydroxypropylcellulose) (HPC)
[10] = dose: 200.0 mg/kg/injection, schedule: Q04DX002 (ip), vehicle: Klucel (hydroxypropylcellulose) (HPC)
[11] = dose: 400.0 mg/kg/injection, schedule: Q04DX002 (ip), vehicle: Klucel (hydroxypropylcellulose) (HPC)
[12] = dose: 100.0 mg/kg/injection, schedule: Q01DX009 (ip), vehicle: saline with Tween-80
[13] = dose: 200.0 mg/kg/injection, schedule: Q01DX009 (ip), vehicle: saline with Tween-80
[14] = dose: 400.0 mg/kg/injection, schedule: Q01DX009 (ip), vehicle: saline with Tween-80
[15] = dose: 400.0 mg/kg/injection, schedule: Q01DX009 (ip), vehicle: Klucel (hydroxypropylcellulose) (HPC)
[16] = dose: 100.0 mg/kg/injection, schedule: Q01DX001 (ip), vehicle: saline
[17] = dose: 200.0 mg/kg/injection, schedule: Q01DX001 (ip), vehicle: saline
[18] = dose: 100.0 mg/kg/injection, schedule: Q01DX009 (ip), vehicle: saline
[19] = dose: 100.0 mg/kg/injection, schedule: Q04DX003 (ip), vehicle: saline
[20] = dose: 200.0 mg/kg/injection, schedule: Q01DX009 (ip), vehicle: saline
[21] = dose: 200.0 mg/kg/injection, schedule: Q04DX003 (ip), vehicle: saline
[22] = dose: 400.0 mg/kg/injection, schedule: Q01DX009 (ip), vehicle: saline
[23] = dose: 400.0 mg/kg/injection, schedule: Q04DX003 (ip), vehicle: saline

Measured: T/C

CC(=O)[O][Sn]([c]1ccccc1)([c]1ccccc1)[c]1ccccc1
inactive: dose: 0.39 mg/kg/injection, schedule: Q01DX009 (ip), vehicle: saline with Tween-80 98 % of control | dose: 0.78 mg/kg/injection, schedule: Q01DX009 (ip), vehicle: saline with Tween-80 93 % of control | dose: 1.0 mg/kg/injection, schedule: Q01DX015 (ip), vehicle: saline 97 % of control | dose: 1.56 mg/kg/injection, schedule: Q01DX009 (ip), vehicle: saline with Tween-80 106 % of control | dose: 1.56 mg/kg/injection, schedule: Q04DX003 (ip), vehicle: saline 106 % of control | dose: 2.0 mg/kg/injection, schedule: Q01DX015 (ip), vehicle: saline 89 % of control | dose: 2.33 mg/kg/injection, schedule: Q01DX009 (ip), vehicle: saline with Tween-80 105 % of control | dose: 3.54 mg/kg/injection, schedule: Q01DX009 (ip), vehicle: saline with Tween-80 100 % of control

COC(=O)N/N=C/c1c[nH]c2ccccc12
inactive: [1] 94 % of control | [2] 106 % of control

COc1ccc(C2=NCCO2)cc1N
inactive: [3] 114 % of control | [4] 96 % of control | [5] 104 % of control | [6] 98 % of control | [7] 104 % of control | [8] 91 % of control

CCCCNC(=O)Nc1ccc(Cl)cc1
inactive: dose: 25.0 mg/kg/injection, schedule: Q01DX001 (ip), vehicle: saline with Tween-80 100 % of control | dose: 50.0 mg/kg/injection, schedule: Q01DX001 (ip), vehicle: saline with Tween-80 88 % of control | dose: 100.0 mg/kg/injection, schedule: Q01DX001 (ip), vehicle: saline with Tween-80 88 % of control | [9] 96 % of control | [10] 100 % of control | [11] 104 % of control

COC1OC(CCl)C(OC(C)=O)C(OC(C)=O)C1OC(C)=O (stereo not drawn)
inactive: [9] 96 % of control and 106 % of control | [10] 104 % of control and 106 % of control | [11] 101 % of control and 103 % of control

CC[N+](CC)(CC)CCOc1cccc(OCC[N+](CC)(CC)CC)c1OCC[N+](CC)(CC)CC
inactive: dose: 5.0 mg/kg/injection, schedule: Q01DX001 (ip), vehicle: saline 95 % of control | dose: 10.0 mg/kg/injection, schedule: Q01DX001 (ip), vehicle: saline 98 % of control

O=C(Nc1ccc(F)c([N+](=O)[O-])c1)Nc1ccccc1C(F)(F)F
inactive: [12] 90 % of control | [13] 96 % of control | [14] 97 % of control

CCC[n+]1nc2ccccc2c(=Nc2ccccc2[N+](=O)[O-])[n-]1
inactive: [3] 100 % of control | [4] 98 % of control | [5] 100 % of control | [6] 106 % of control | [7] 98 % of control | [8] 101 % of control

CCOC(=O)c1cc(OC(C)=O)c2c(ccc3ccccc32)c1C
inactive: [1] 98 % of control | [2] 88 % of control | [15] 91 % of control

CCCCC[CH2][Sn]([CH2]C)([CH2]C)[CH2]C
inactive: dose: 100.0 mg/kg/injection, schedule: Q04DX002 (ip), vehicle: saline 93 % of control | dose: 200.0 mg/kg/injection, schedule: Q04DX002 (ip), vehicle: saline 93 % of control

CCOC(=O)c1ccc(NC(=O)Oc2ccc(C(=O)OC)cc2)cc1
inactive: [1] 102 % of control | [2] 95 % of control | [15] 100 % of control

O=C(O)CCN1CCN(c2cccc(Cl)c2)CC1
inactive: [16] 96 % of control | [17] 95 % of control

CN(CCc1cn(C2OC(CO)C(O)C(O)C2O)cn1)C(=O)/C=C/c1ccccc1 (stereo not drawn)
inactive: dose: 100.0 mg/kg/injection, schedule: Q01DX005 (ip), vehicle: saline 112 % of control

Oc1c(Cl)cc(Cl)cc1/C=N/Nc1nnc(N/N=C/c2cc(Cl)cc(Cl)c2O)c2ccccc12
inactive: dose: 50.0 mg/kg/injection, schedule: Q01DX001 (ip), vehicle: other 111 % of control | dose: 100.0 mg/kg/injection, schedule: Q01DX001 (ip), vehicle: other 101 % of control | dose: 200.0 mg/kg/injection, schedule: Q01DX001 (ip), vehicle: other 102 % of control | dose: 400.0 mg/kg/injection, schedule: Q01DX001 (ip), vehicle: other 102 % of control

CCSc1ncc(F)c(=O)[nH]1
inactive: dose: 50.0 mg/kg/injection, schedule: Q01DX001 (ip), vehicle: saline 113 % of control | [16] 101 % of control | [17] 98 % of control

Nc1ncnc2nc(SC3OC(CO)C(O)C3O)[nH]c12 (stereo not drawn)
inactive: dose: 150.0 mg/kg/injection, schedule: Q01DX001 (ip), vehicle: saline 100 % of control | dose: 300.0 mg/kg/injection, schedule: Q01DX001 (ip), vehicle: saline 100 % of control

CCC1C/C(=C\NC(N)=O)C(=O)O1 (stereo not drawn)
inactive: [12] 96 % of control | dose: 100.0 mg/kg/injection, schedule: Q04DX003 (ip), vehicle: saline with Tween-80 96 % of control | [13] 100 % of control | dose: 200.0 mg/kg/injection, schedule: Q04DX003 (ip), vehicle: saline with Tween-80 104 % of control | [14] 100 % of control | dose: 400.0 mg/kg/injection, schedule: Q04DX003 (ip), vehicle: saline with Tween-80 101 % of control

COC1OC(COC(c2ccccc2)(c2ccccc2)c2ccccc2)C2OC12 (stereo not drawn)
inactive: [16] 94 % of control | [17] 103 % of control | dose: 400.0 mg/kg/injection, schedule: Q01DX001 (ip), vehicle: saline 97 % of control

CC(C)(C)[CH2][Sn]([Cl])([CH2]C(C)(C)C)[CH2]C(C)(C)C
inactive: dose: 12.5 mg/kg/injection, schedule: Q04DX002 (ip), vehicle: saline with Tween-80 92 % of control

CC(C)CC(=O)CC(O)(C(F)(F)F)C(F)(F)F
inactive: dose: 50.0 mg/kg/injection, schedule: Q01DX009 (ip), vehicle: saline 101 % of control | dose: 50.0 mg/kg/injection, schedule: Q04DX003 (ip), vehicle: saline 94 % of control | [18] 104 % of control | [19] 92 % of control | [20] 104 % of control | [21] 100 % of control | [22] 93 % of control | [23] 103 % of control

Nc1c(Cl)cc(I)cc1C(=O)O
inactive: [9] 94 % of control | [10] 102 % of control | [11] 102 % of control

CCCOCC(O)CO (stereo not drawn)
inactive: [18] 100 % of control | [19] 107 % of control | [20] 98 % of control | [21] 102 % of control | [22] 102 % of control | [23] 110 % of control
